From patent publication US10905680B2, “Methods of treatment for cholestatic and fibrotic diseases” (Genfit, priority 2016, dated 2021)

Experiments:
[1] = tested on: human renal interstitial fibroblasts (HRIF); test: TGFβ1-induced expression of α-SMA protein in human renal fibroblasts (ELISA); type: cell-based; conditions: TGFβ1 3 ng/ml, 48 hours
Protocol: Serum-deprived Human Renal Interstitial Fibroblasts (HRIF) were preincubated for 1 hour with NTZ (A) or TZ (B) before the activation with the profibrogenic cytokine TGFβ1 (3 ng/ml). After 48 hours of incubation, the expression of α-SMA was measured by ELISA. The obtained values were normalized over TGFβ1 control. Data are presented as mean (quadruplicates)±SEM (Standard Error of Mean). […] For the activation experiments with TGFβ1, the HRIF were plated at a density of 6.5×10^3 cells per well in 384-well plates. The next day, cell culture medium was removed, and cells were washed with PBS (Invitrogen cat #14190). HRIF were deprived for 24 hours in serum-free, and FGS-free medium. For the treatments with NTZ or TZ, the serum-deprived HRIF were preincubated for 1 hour with the compounds followed by addition of the profibrogenic stimuli TGFβ1 (PeproTech cat #100-21, 3 ng/mL) in serum-free, -FGS-free medium for an additional 48 hour period. Finally, the cells were washed with PBS (Invitrogen, cat #14190) before the addition of 30 μl of lysis buffer (CelLytic™ MT reagent; Sigma #C3228). Plates were then incubated for 30 min on ice using a plate shaker, and subsequently stored at −20° C. The level of α-SMA was measured using a Sandwich ELISA. Briefly, the wells of an ELISA plate were first coated with the capture antibody (mouse monoclonal anti-ACTA2, Abnova) at 4° C. overnight. […]

[2] = tested on: Human Intestinal Myofibroblasts (InMyoFib); test: TGFβ1-induced expression of α-SMA protein in human intestinal fibroblasts (ELISA); type: cell-based; conditions: concentration of 1 μM; TGFβ1 3 ng/ml, 48 hours
Protocol: NTZ (A) or TZ (B) were added to serum-deprived intestinal fibroblasts (InMyoFib) 1 hour before the activation with TGFβ1 (3 ng/ml). After 48 hours of incubation, the expression of α-SMA was measured by ELISA. The obtained values were transformed into percentage inhibition over TGFβ1 control. Data are presented as mean (triplicates)±standard deviation (SD). Statistical analyses were performed by one-way ANOVA followed by Bonferroni post-hoc tests, using Sigma Plot 11.0 software. [*: p<0.05; **: p<0.01; ***: p<0.001 (comparison versus TGFβ1 3 ng/mL group)].
The Human Intestinal Myofibroblasts (InMyoFib) (Lonza) were cultured in Smooth Muscle Cell Basal Medium (SmBM-2™) (Lonza cat # CC-3181) that was supplemented with SmGM™-2 BulletKit™ (Lonza cat # CC-4149). The complete medium contains 5% fetal bovine serum. For the activation experiments with TGFβ1, the inMyoFib were plated at a density of 10×10^3 cells per well in 96-well plates. The next day, cell-culture medium was removed, and cells were washed with PBS (Invitrogen cat #14190). InMyoFib were deprived for 24 hours in serum-free, insulin-free and rhFGF-B-free medium. […]
The level of α-SMA was measured using a Sandwich ELISA. […]

Compound: O=C(Nc1ncc([N+](=O)[O-])s1)c1ccccc1O [TZ, 2-hydroxy-N-(5-nitro-2-thiazolyl)benzamide]
- antifibrotic effects (α-SMA) in TGFβ-activated human renal interstitial fibroblasts [1]: significant and dose-dependent antifibrotic effects
- antifibrotic effects (α-SMA) in human Intestinal myofibroblasts [2]: significant antifibrotic effects
